Earlier results in paper PMC10686834, “Targeting myeloid chemotaxis to reverse prostate cancer therapy resistance” (Nature, 2023).
Where two headings read alike, the source gives them in different places.

Tests used:
mCRPC patients = tested on: mCRPC patients; set-up: method as in ref (10) (a number printed in a supplementary file, which may have a reference list of its own: not looked up in the article's list); details: ref (10), cited from earlier work
CYP3A4 [1] = tested on: CYP3A4; set-up: method as in U.S enzalutamide Full Prescribing Information; details: single 160mg oral dose after multiple oral doses of itraconazole; ref U.S enzalutamide Full Prescribing Information; cited from earlier work
[2] = tested on: chemotherapy naïve patients with progressive metastatic prostate cancer; set-up: method as in ref (17) (a number printed in a supplementary file, which may have a reference list of its own: not looked up in the article's list); details: PREVAIL, ref (17), cited from earlier work
CYP2C19 = tested on: CYP2C19; set-up: method as in U.S enzalutamide Full Prescribing Information; details: steady state; ref U.S enzalutamide Full Prescribing Information; cited from earlier work
CYP2C9 = tested on: CYP2C9; set-up: method as in U.S enzalutamide Full Prescribing Information; details: steady state; ref U.S enzalutamide Full Prescribing Information; cited from earlier work
[3] = set-up: method as in U.S enzalutamide Full Prescribing Information; details: ref U.S enzalutamide Full Prescribing Information, cited from earlier work
CYP3A4 [4] = tested on: CYP3A4; set-up: method as in U.S enzalutamide Full Prescribing Information; details: steady state; ref U.S enzalutamide Full Prescribing Information; cited from earlier work
[5] = tested on: patients with progressive castration resistant prostate cancer previously treated with docetaxel; set-up: method as in ref (8) (a number printed in a supplementary file, which may have a reference list of its own: not looked up in the article's list); details: AFFIRM, ref (8), cited from earlier work

SMILES: C[C@]12CC[C@H](O)CC1=CC[C@@H]1[C@@H]2CC[C@]2(C)C(c3cccnc3)=CC[C@@H]12 [abiraterone]
- patients responding to abiraterone (PSA decline ≥50% below baseline maintained for ≥3 weeks) (mCRPC patients; patients with an NLR > 5): 16%
- patients responding to abiraterone (PSA decline ≥50% below baseline maintained for ≥3 weeks) (mCRPC patients; patients with an NLR ≤ 5): 49%

SMILES: CNC(=O)c1ccc(N2C(=S)N(c3ccc(C#N)c(C(F)(F)F)c3)C(=O)C2(C)C)cc1F [enzalutamide]
- increase of AUC0-inf of enzalutamide plus N-desmethyl-enzalutamide (CYP3A4 [1]): 1.3 fold
- grade 3 or higher adverse events ([2]; enzalutamide group): 43%
- hypertension, grade 3 or higher ([2]; enzalutamide group): 7%
- patients alive at time of analysis ([2]; enzalutamide group): 72%
- rate of radiographic progression-free survival at 12 months ([2]; enzalutamide group): 65%
- HR, radiographic progression-free survival ([2]; enzalutamide vs placebo): 0.19
- HR, survival ([2]; enzalutamide vs placebo): 0.71
- HR, time to PSA progression ([2]; enzalutamide vs placebo): 0.17
- HR, time to initiation of cytotoxic therapy ([2]; enzalutamide vs placebo): 0.35
- HR, time until the first skeletal-related event ([2]; enzalutamide vs placebo): 0.72
- complete/partial soft tissue response ([2]; enzalutamide): 59%
- reduction in PSA level by 50% or more ([2]; enzalutamide): 78%
- CYP2C19 induction in humans (CYP2C19): moderate
- CYP2C9 induction in humans (CYP2C9): moderate
- time to maximum plasma concentration (tmax) ([3]; after a single oral dose): 1 h
- time to reach steady state concentrations ([3]; daily oral administration): approximately 1 month
- average difference between peak (Cmax) and trough (Cmin) concentrations ([3]; steady state): 25%
- CYP3A4 induction in humans (CYP3A4 [4]): strong
- median overall survival ([5]; enzalutamide group (800 patients)): 18.4 months
- incidence of grade 3 adverse events ([5]; enzalutamide group): 45.3%
- HR, radiographic progression-free survival ([5]; enzalutamide vs placebo): 0.40
- HR, time to PSA progression ([5]; enzalutamide vs placebo): 0.25
- HR, time to first skeletal-related event ([5]; enzalutamide vs placebo): 0.69
- quality of life response rate ([5]; enzalutamide): 43%
- radiographic progression-free survival ([5]; enzalutamide): 8.3 months
- reduction in PSA level by 50% or more ([5]; enzalutamide): 54%
- soft tissue response rate ([5]; enzalutamide): 29%
- time to PSA progression ([5]; enzalutamide): 8.3 months
- time to first skeletal-related event ([5]; enzalutamide): 16.7 months
- liver-function abnormalities reported as adverse events ([5]; patients receiving enzalutamide): 1%
